Reference: PubChem BioAssay (NCI)
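GI50 marks 50% less growth. TGI marks complete inhibition of growth.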

Assays:
Assay in all cases: NCI tumour cell line growth inhibition, 384-well format
[1] = tested on: MALME-3M melanoma
[2] = tested on: NCI-H23 lung
[3] = tested on: DU-145 prostate
[4] = tested on: OVCAR-8 ovarian
[5] = tested on: SF-295 CNS
[6] = tested on: SF-268 CNS
[7] = tested on: HCC-2998 colon
[8] = tested on: PC-3 prostate
[9] = tested on: NCI-H522 lung
[10] = tested on: HL-60(TB) leukemia
[11] = tested on: MOLT-4 leukemia
[12] = tested on: TK-10 renal
[13] = tested on: HCT-15 colon
[14] = tested on: BT-549 breast
[15] = tested on: ACHN renal
[16] = tested on: SK-MEL-5 melanoma
[17] = tested on: A498 renal
[18] = tested on: HT29 colon
[19] = tested on: KM12 colon
[20] = tested on: NCI-H226 lung
[21] = tested on: OVCAR-3 ovarian
[22] = tested on: SK-OV-3 ovarian
[23] = tested on: SR leukemia
[24] = tested on: M14 melanoma
[25] = tested on: COLO 205 colon
[26] = tested on: NCI/ADR-RES ovarian
[27] = tested on: LOX IMVI melanoma
[28] = tested on: HOP-92 NSCLC
[29] = tested on: MCF7 breast
[30] = tested on: UACC-62 melanoma
[31] = tested on: HS 578T breast
[32] = tested on: UO-31 renal
[33] = tested on: T-47D breast
[34] = tested on: U251 glioblastoma
[35] = tested on: RXF 393 renal
[36] = tested on: SNB-75 CNS
[37] = tested on: RPMI-8226 leukemia
[38] = tested on: HCT-116 colon
[39] = tested on: K-562 leukemia
[40] = tested on: CCRF-CEM leukemia
[41] = tested on: MDA-MB-231 breast
[42] = tested on: MDA-MB-468 breast
[43] = tested on: MDA-MB-435 melanoma
[44] = tested on: SNB-19 CNS
[45] = tested on: NCI-H322M lung
[46] = tested on: UACC-257 melanoma
[47] = tested on: NCI-H460 NSCLC
[48] = tested on: OVCAR-4 ovarian
[49] = tested on: SF-539 CNS
[50] = tested on: EKVX NSCLC
[51] = tested on: 786-0 renal
[52] = tested on: SK-MEL-28 melanoma
[53] = tested on: CAKI-1 renal
[54] = tested on: A549 NSCLC
[55] = tested on: SW-620 colon
[56] = tested on: SN12C renal
[57] = tested on: HOP-62 NSCLC
[58] = tested on: IGROV1 ovarian

`COc1cc2c(Nc3ccc(Cl)c(Cl)c3F)ncnc2cc1OCC1C[C@@H]2CN(C)C[C@@H]2C1` (stereo not given in full) was tested, and the GI50 [1] was 1160 nM, the TGI [1] was 2380 nM and the GI50 [2] was 1020 nM. It also gave a TGI [2] of 2230 nM, a GI50 [3] of 557 nM and a TGI [3] of 2180 nM. It also gave a GI50 [4] of 1110 nM, a TGI [4] of 2320 nM and a GI50 [5] of 1680 nM. It also gave a TGI [5] of 3060 nM, a GI50 [6] of 1100 nM and a TGI [6] of 2300 nM. It also gave a GI50 [7] of 1480 nM, a TGI [7] of 2810 nM and a GI50 [8] of 1120 nM. It also gave a TGI [8] of 2500 nM, a GI50 [9] of 80.1 nM and a TGI [9] of 1440 nM. The GI50 [10] was 1670 nM, the TGI [10] was 3030 nM and the GI50 [11] was 1100 nM. It also gave a TGI [11] of 2300 nM, a GI50 [12] of 156 nM and a TGI [12] of 1230 nM. For the same compound, the GI50 [13] was 890 nM, the TGI [13] was 2130 nM and the GI50 [14] was 1300 nM. The TGI [14] was 2580 nM, the GI50 [15] was 69.1 nM and the TGI [15] was 1280 nM. The GI50 [16] was 1220 nM, the TGI [16] was 2460 nM and the GI50 [17] was 940 nM. It also gave a TGI [17] of 2150 nM, a GI50 [18] of 598 nM and a TGI [18] of 1920 nM. The GI50 [19] was 1630 nM, the TGI [19] was 3010 nM and the GI50 [20] was 1260 nM. It also gave a TGI [20] of 2700 nM, a GI50 [21] of 93.8 nM and a TGI [21] of 1520 nM. The GI50 [22] was 189 nM, the TGI [22] was 1430 nM and the GI50 [23] was 415 nM. It also gave a TGI [23] of 801 nM, a GI50 [24] of 1650 nM and a TGI [24] of 3020 nM. It also gave a GI50 [25] of 1810 nM, a TGI [25] of 3280 nM and a GI50 [26] of 1400 nM. The TGI [26] was 2800 nM, the GI50 [27] was 1150 nM and the TGI [27] was 2380 nM. The GI50 [28] was 1150 nM, the TGI [28] was 2370 nM and the GI50 [29] was 1090 nM. It also gave a TGI [29] of 2300 nM, a GI50 [30] of 1120 nM and a TGI [30] of 2330 nM. The GI50 [31] was 1080 nM, the TGI [31] was 2280 nM and the GI50 [32] was 252 nM. For the same compound, the TGI [32] was 1650 nM, the GI50 [33] was 1020 nM and the TGI [33] was 2230 nM. It also gave a GI50 [34] of 1600 nM, a TGI [34] of 2950 nM and a GI50 [35] of 512 nM. For the same compound, the TGI [35] was 1860 nM, the GI50 [36] was 1310 nM and the TGI [36] was 2590 nM. For the same compound, the GI50 [37] was 1390 nM, the TGI [37] was 2680 nM and the GI50 [38] was 1390 nM. The TGI [38] was 2720 nM, the GI50 [39] was 51 nM and the TGI [39] was 181 nM. The GI50 [40] was 1520 nM, the TGI [40] was 2850 nM and the GI50 [41] was 1180 nM. It also gave a TGI [41] of 2470 nM, a GI50 [42] of 30.7 nM and a TGI [42] of 162 nM. For the same compound, the GI50 [43] was 1690 nM, the TGI [43] was 3070 nM and the GI50 [44] was 1410 nM. The TGI [44] was 2740 nM, the GI50 [45] was 31.7 nM and the TGI [45] was 366 nM. The GI50 [46] was 208 nM, the TGI [46] was 409 nM and the GI50 [47] was 1330 nM. It also gave a TGI [47] of 2620 nM, a GI50 [48] of 1360 nM and a TGI [48] of 3150 nM. For the same compound, the GI50 [49] was 1140 nM, the TGI [49] was 2360 nM and the GI50 [50] was 47.2 nM. It also gave a TGI [50] of 1130 nM, a GI50 [51] of 710 nM and a TGI [51] of 2030 nM. The GI50 [52] was 1450 nM, the TGI [52] was 2770 nM and the GI50 [53] was 123 nM. The TGI [53] was 1600 nM, the GI50 [54] was 974 nM and the TGI [54] was 2160 nM. It also gave a GI50 [55] of 1560 nM, a TGI [55] of 2900 nM and a GI50 [56] of 161 nM. For the same compound, the TGI [56] was 1400 nM, the GI50 [57] was 1310 nM and the TGI [57] was 2590 nM. The GI50 [58] was 33.2 nM and the TGI [58] was 199 nM.
`C[C@H](Nc1ccc2c(c1)OCCn1cc(N3C(=O)OC[C@H]3C(F)F)nc1-2)C(N)=O` showed a GI50 [1] of 5850 nM, a TGI [1] of over 100000 nM and a GI50 [2] of 21800 nM. The TGI [2] was over 100000 nM, the GI50 [3] was 18000 nM and the TGI [3] was over 100000 nM. It also gave a GI50 [4] of 27000 nM, a TGI [4] of over 100000 nM and a GI50 [5] of 14600 nM. The TGI [5] was over 100000 nM, the GI50 [6] was 24000 nM and the TGI [6] was over 100000 nM. It also gave a GI50 [7] of 5680 nM, a TGI [7] of over 100000 nM and a GI50 [8] of 3820 nM. It also gave a TGI [8] of over 100000 nM, a GI50 [9] of 19000 nM and a TGI [9] of over 100000 nM. For the same compound, the GI50 [10] was 156 nM, the TGI [10] was 3300 nM and the GI50 [11] was 1070 nM. For the same compound, the TGI [11] was 10600 nM, the GI50 [12] was 4030 nM and the TGI [12] was over 100000 nM. The GI50 [13] was 730 nM, the TGI [13] was over 100000 nM and the GI50 [14] was 14500 nM. For the same compound, the TGI [14] was over 100000 nM, the GI50 [15] was 15200 nM and the TGI [15] was over 100000 nM. For the same compound, the GI50 [16] was 43400 nM, the TGI [16] was over 100000 nM and the GI50 [17] was 15200 nM. The TGI [17] was over 100000 nM, the GI50 [18] was 289 nM and the TGI [18] was over 100000 nM. For the same compound, the GI50 [19] was 19500 nM, the TGI [19] was 54200 nM and the GI50 [20] was 38500 nM. The TGI [20] was over 100000 nM, the GI50 [21] was 3270 nM and the TGI [21] was 21700 nM. The GI50 [22] was 49 nM, the TGI [22] was over 100000 nM and the GI50 [24] was over 100000 nM. For the same compound, the TGI [24] was over 100000 nM, the GI50 [25] was 987 nM and the TGI [25] was over 100000 nM. The GI50 [26] was over 100000 nM, the TGI [26] was over 100000 nM and the GI50 [27] was 12500 nM. It also gave a TGI [27] of 43900 nM, a GI50 [28] of 2200 nM and a TGI [28] of over 100000 nM. The GI50 [29] was 39 nM, the TGI [29] was over 100000 nM and the GI50 [30] was 5640 nM. For the same compound, the TGI [30] was over 100000 nM, the GI50 [31] was 6240 nM and the TGI [31] was 48400 nM. It also gave a GI50 [32] of 6240 nM, a TGI [32] of over 100000 nM and a GI50 [33] of 13.1 nM. The TGI [33] was 72.8 nM, the GI50 [34] was 75800 nM and the TGI [34] was over 100000 nM. It also gave a GI50 [35] of 15900 nM, a TGI [35] of 71400 nM and a GI50 [36] of 3200 nM. For the same compound, the TGI [36] was over 100000 nM, the GI50 [37] was 16100 nM and the TGI [37] was 31700 nM. For the same compound, the GI50 [38] was 25900 nM, the TGI [38] was over 100000 nM and the GI50 [39] was over 100000 nM. The TGI [39] was over 100000 nM, the GI50 [40] was 5710 nM and the TGI [40] was over 100000 nM. The GI50 [41] was 25900 nM, the TGI [41] was over 100000 nM and the GI50 [42] was 1570 nM. The TGI [42] was 10900 nM, the GI50 [43] was 58100 nM and the TGI [43] was over 100000 nM. It also gave a GI50 [44] of 85300 nM, a TGI [44] of over 100000 nM and a GI50 [45] of 2850 nM. The TGI [45] was 57300 nM, the GI50 [46] was over 100000 nM and the TGI [46] was over 100000 nM. It also gave a GI50 [47] of 802 nM, a TGI [47] of over 100000 nM and a GI50 [48] of 43800 nM. For the same compound, the TGI [48] was over 100000 nM, the GI50 [49] was 17600 nM and the TGI [49] was over 100000 nM. The GI50 [50] was 2990 nM, the TGI [50] was 46700 nM and the GI50 [51] was 40500 nM. For the same compound, the TGI [51] was over 100000 nM, the GI50 [52] was 7960 nM and the TGI [52] was over 100000 nM. The GI50 [53] was 3110 nM, the TGI [53] was 46300 nM and the GI50 [54] was 12700 nM. The TGI [54] was over 100000 nM, the GI50 [55] was 95400 nM and the TGI [55] was over 100000 nM. The GI50 [56] was 5740 nM, the TGI [56] was over 100000 nM and the GI50 [57] was 34600 nM. The TGI [57] was over 100000 nM, the GI50 [58] was 19.5 nM and the TGI [58] was 141 nM.
